The target of the assay is T1, hQ23 (HEK-293 cell line stably transfected with one of the members of the KCNQ family) (Homo sapiens, UniProt O43525+O43526).
T1 construct: expressed in transfected cells; host or cells: HEK-293, stably transfected
The assay is described as follows: Thallium flux assay for KCNQ channel blockers (FLIPR, BTC dye). Type of assay: cell-based. The note with it: hQ23 cells, thallium flux. A digest of the protocol:
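HEK-293 cells stably expressing a KCNQ member, loaded with BTC-AM (2 μM) in chloride-free buffer, pH 7.3; compounds added at 1% DMSO, then Tl2SO4 stimulus on FLIPR (488/540 nm, 60 s). Minimal active concentration set at ≥4 SD above negative control; IC50 from 10-point 1:3 series, single-site logistic fit versus the positive-control blocker.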

This is an account of results in patent US7091202B2, “4-arylspirocycloalkyl-2-aminopyrimidine carboxamide KCNQ potassium channel modulators” (Bristol-Myers Squibb Company, priority 2004, dated 2006).

T1 sequence (O43526 whole entry): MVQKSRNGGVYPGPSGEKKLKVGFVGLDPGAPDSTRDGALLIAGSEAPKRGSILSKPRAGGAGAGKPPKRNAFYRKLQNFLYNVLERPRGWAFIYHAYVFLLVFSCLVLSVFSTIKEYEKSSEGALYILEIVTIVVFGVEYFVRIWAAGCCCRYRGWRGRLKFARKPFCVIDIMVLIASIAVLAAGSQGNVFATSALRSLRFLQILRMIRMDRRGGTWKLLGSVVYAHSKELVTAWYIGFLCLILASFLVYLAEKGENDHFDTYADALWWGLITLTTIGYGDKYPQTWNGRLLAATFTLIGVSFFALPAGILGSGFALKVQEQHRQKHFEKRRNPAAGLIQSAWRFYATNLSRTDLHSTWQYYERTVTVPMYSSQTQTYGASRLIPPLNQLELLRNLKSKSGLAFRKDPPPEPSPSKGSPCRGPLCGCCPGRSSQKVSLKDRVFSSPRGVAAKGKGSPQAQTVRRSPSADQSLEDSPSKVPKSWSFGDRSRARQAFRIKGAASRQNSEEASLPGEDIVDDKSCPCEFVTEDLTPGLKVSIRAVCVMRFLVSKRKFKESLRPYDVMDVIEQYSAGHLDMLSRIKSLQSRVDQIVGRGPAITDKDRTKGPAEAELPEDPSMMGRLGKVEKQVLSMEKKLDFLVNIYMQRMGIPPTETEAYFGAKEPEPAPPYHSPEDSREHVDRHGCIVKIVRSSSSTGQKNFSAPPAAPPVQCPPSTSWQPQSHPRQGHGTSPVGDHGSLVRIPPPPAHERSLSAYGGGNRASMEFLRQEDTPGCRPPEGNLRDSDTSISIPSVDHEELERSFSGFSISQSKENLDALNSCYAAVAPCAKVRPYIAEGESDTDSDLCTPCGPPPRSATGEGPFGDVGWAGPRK
T1 sequence (O43525 whole entry): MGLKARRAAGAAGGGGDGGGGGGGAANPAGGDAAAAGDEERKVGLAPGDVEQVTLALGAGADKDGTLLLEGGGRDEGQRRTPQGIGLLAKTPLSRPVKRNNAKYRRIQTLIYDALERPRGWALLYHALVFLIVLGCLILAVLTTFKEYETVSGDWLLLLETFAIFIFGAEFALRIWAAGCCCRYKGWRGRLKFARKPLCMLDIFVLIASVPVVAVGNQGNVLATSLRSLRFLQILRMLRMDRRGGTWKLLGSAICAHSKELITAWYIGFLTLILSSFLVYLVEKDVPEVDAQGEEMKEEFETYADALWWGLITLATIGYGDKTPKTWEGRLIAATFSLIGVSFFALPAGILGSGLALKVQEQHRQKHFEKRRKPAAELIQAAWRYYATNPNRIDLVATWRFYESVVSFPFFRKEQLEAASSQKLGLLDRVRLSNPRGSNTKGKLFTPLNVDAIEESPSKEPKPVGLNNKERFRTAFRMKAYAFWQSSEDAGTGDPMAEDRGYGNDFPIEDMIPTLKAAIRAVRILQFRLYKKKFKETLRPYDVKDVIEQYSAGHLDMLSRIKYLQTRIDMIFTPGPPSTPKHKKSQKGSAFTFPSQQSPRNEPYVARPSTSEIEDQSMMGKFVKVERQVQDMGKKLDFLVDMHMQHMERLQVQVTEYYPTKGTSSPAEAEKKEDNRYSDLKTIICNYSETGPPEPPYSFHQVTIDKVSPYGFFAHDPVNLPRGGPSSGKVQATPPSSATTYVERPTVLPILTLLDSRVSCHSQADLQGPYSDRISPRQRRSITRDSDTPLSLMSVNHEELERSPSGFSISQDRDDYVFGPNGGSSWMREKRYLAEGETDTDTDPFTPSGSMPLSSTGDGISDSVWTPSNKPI

Regarding `CC1CCN(c2ncc(C(=O)NCc3ccc4c(c3)OCO4)c(C3(c4ccc(Cl)cc4)CCCC3)n2)CC1` [Example 154, 5-pyrimidinecarboxamide, N-(1,3-benzodioxol-5-ylmethyl)-4-[1-(4-chlorophenyl)cyclopentyl]-2-(4-methyl-1-piperidinyl)-], the EC50 (in general, the concentration that produces a half-maximal response) was determined as 10 nM. The figure for `CCC(C)Nc1ncc(C(=O)NCc2ccc3c(c2)OCO3)c(C2(c3ccc(Cl)cc3)CCCC2)n1` (stereo not drawn) [Example 155, 5-pyrimidinecarboxamide, N-(1,3-benzodioxol-5-ylmethyl)-4-[1-(4-chlorophenyl)cyclopentyl]-2-[(1-methylpropyl)amino]-] is 337 nM.

Consider `O=C(NCc1ccc2c(c1)OCO2)c1cnc(NC2CCCC2)nc1C1(c2ccc(Cl)cc2)CCCC1` [Example 156, 5-pyrimidinecarboxamide, N-(1,3-benzodioxol-5-ylmethyl)-4-[1-(4-chlorophenyl)cyclopentyl]-2-(cyclopentylamino)-], for which the EC50 was determined as 70 nM. The value for `CC(NC(=O)c1cnc(NC2CC2)nc1C1(c2ccc(Cl)cc2)CCCC1)c1cccc2ccccc12` (stereo not drawn) [Example 157, 5-pyrimidinecarboxamide, 4-[1-(4-chlorophenyl)cyclopentyl]-2-(cyclopropylamino)-N-[1-(1-naphthalenyl)ethyl]-] was 195 nM; that for `CC(NC(=O)c1cnc(N2CCCC2)nc1C1(c2ccc(Cl)cc2)CCCC1)c1cccc2ccccc12` (stereo not drawn) [Example 158, 5-pyrimidinecarboxamide, 4-[1-(4-chlorophenyl)cyclopentyl]-N-[1-(1-naphthalenyl)ethyl]-2-(1-pyrrolidinyl)-] was 40 nM; that for `CC(NC(=O)c1cnc(N2CCN(C)CC2)nc1C1(c2ccc(Cl)cc2)CCCC1)c1cccc2ccccc12` (stereo not drawn) [Example 159, 5-pyrimidinecarboxamide, 4-[1-(4-chlorophenyl)cyclopentyl]-2-(4-methyl-1-piperazinyl)-N-[1-(1-naphthalenyl)ethyl]-] was 643 nM. The figure for `CC1CCCN(c2ncc(C(=O)NC(C)c3cccc4ccccc34)c(C3(c4ccc(Cl)cc4)CCCC3)n2)C1` (stereo not drawn) [Example 160, 5-pyrimidinecarboxamide, 4-[1-(4-chlorophenyl)cyclopentyl]-2-(3-methyl-1-piperidinyl)-N-[1-(1-naphthalenyl)ethyl]-] is 30 nM; for `CC1CCN(c2ncc(C(=O)NC(C)c3cccc4ccccc34)c(C3(c4ccc(Cl)cc4)CCCC3)n2)CC1` (stereo not drawn) [Example 161, 5-pyrimidinecarboxamide, 4-[1-(4-chlorophenyl)cyclopentyl]-2-(4-methyl-1-piperidinyl)-N-[1-(1-naphthalenyl)ethyl]-] it is 10 nM. The figure for `CCC(C)Nc1ncc(C(=O)NC(C)c2cccc3ccccc23)c(C2(c3ccc(Cl)cc3)CCCC2)n1` (stereo not drawn) [Example 162, 5-pyrimidinecarboxamide, 4-[1-(4-chlorophenyl)cyclopentyl]-2-[(1-methylpropyl)amino]-N-[1-(1-naphthalenyl)ethyl]-] is 113 nM; for `CC(NC(=O)c1cnc(NCCN(C)C)nc1C1(c2ccc(Cl)cc2)CCCC1)c1cccc2ccccc12` (stereo not drawn) [Example 163, 5-pyrimidinecarboxamide, 4-[1-(4-chlorophenyl)cyclopentyl]-2-[[2-(dimethylamino)ethyl]amino]-N-[1-(1-naphthalenyl)ethyl]-] it is 705 nM; for `CC(NC(=O)c1cnc(NC2CCCC2)nc1C1(c2ccc(Cl)cc2)CCCC1)c1cccc2ccccc12` (stereo not drawn) [Example 164, 5-pyrimidinecarboxamide, 4-[1-(4-chlorophenyl)cyclopentyl]-2-(cyclopentylamino)-N-[1-(1-naphthalenyl)ethyl]-] it is 10 nM. Consider `O=C(NCc1cccc2ccccc12)c1cnc(NC2CC2)nc1C1(c2ccc(Cl)cc2)CCCC1` [Example 165, 5-pyrimidinecarboxamide, 4-[1-(4-chlorophenyl)cyclopentyl]-2-(cyclopropylamino)-N-(1-naphthalenylmethyl)-], for which the midpoint of the response, the EC50, lay at 630 nM. The figure for `CC1CCC(Nc2ncc(C(=O)NCc3cccc4ccccc34)c(C3(c4ccc(Cl)cc4)CCCC3)n2)CC1` (stereo not drawn) [Example 166, 5-pyrimidinecarboxamide, 4-[1-(4-chlorophenyl)cyclopentyl]-2-[(4-methylcyclohexyl)amino]-N-(1-naphthalenylmethyl)-] is 16 nM. The figure for `O=C(NCc1cccc2ccccc12)c1cnc(N2CCCC2)nc1C1(c2ccc(Cl)cc2)CCCC1` [Example 167, 5-pyrimidinecarboxamide, 4-[1-(4-chlorophenyl)cyclopentyl]-N-(1-naphthalenylmethyl)-2-(1-pyrrolidinyl)-] is 142 nM; for `CN1CCN(c2ncc(C(=O)NCc3cccc4ccccc34)c(C3(c4ccc(Cl)cc4)CCCC3)n2)CC1` [Example 168, 5-pyrimidinecarboxamide, 4-[1-(4-chlorophenyl)cyclopentyl]-2-(4-methyl-1-piperazinyl)-N-(1-naphthalenylmethyl)-] it is 497 nM.

Turning to `CC1CCCN(c2ncc(C(=O)NCc3cccc4ccccc34)c(C3(c4ccc(Cl)cc4)CCCC3)n2)C1` (stereo not drawn) [Example 169, 5-pyrimidinecarboxamide, 4-[1-(4-chlorophenyl)cyclopentyl]-2-(3-methyl-1-piperidinyl)-N-(1-naphthalenylmethyl)-], it took 10 nM to reach a half-maximal effect (EC50).

Take `CC1CCN(c2ncc(C(=O)NCc3cccc4ccccc34)c(C3(c4ccc(Cl)cc4)CCCC3)n2)CC1` [Example 170, 5-pyrimidinecarboxamide, 4-[1-(4-chlorophenyl)cyclopentyl]-2-(4-methyl-1-piperidinyl)-N-(1-naphthalenylmethyl)-]: a half-maximal effect (EC50) was put at 10 nM. `CCC(C)Nc1ncc(C(=O)NCc2cccc3ccccc23)c(C2(c3ccc(Cl)cc3)CCCC2)n1` (stereo not drawn) [Example 171, 5-pyrimidinecarboxamide, 4-[1-(4-chlorophenyl)cyclopentyl]-2-[(1-methylpropyl)amino]-N-(1-naphthalenylmethyl)-] had an EC50 of 158 nM. As to `O=C(NCc1cccc2ccccc12)c1cnc(NC2CCCC2)nc1C1(c2ccc(Cl)cc2)CCCC1` [Example 172, 5-pyrimidinecarboxamide, 4-[1-(4-chlorophenyl)cyclopentyl]-2-(cyclopentylamino)-N-(1-naphthalenylmethyl)-], the EC50 worked out at 373 nM. As to `CN1CCN(c2ncc(C(=O)NCc3ccc(Cl)c(Cl)c3)c(C3(c4ccc(Cl)cc4)CCCC3)n2)CC1` [Example 173, 5-pyrimidinecarboxamide, 4-[1-(4-chlorophenyl)cyclopentyl]-N-[(3,4-dichlorophenyl)methyl]-2-(4-methyl-1-piperazinyl)-], it took 820 nM to reach a half-maximal effect (EC50).

Turning to `CC1CCCN(c2ncc(C(=O)NCc3ccc(Cl)c(Cl)c3)c(C3(c4ccc(Cl)cc4)CCCC3)n2)C1` (stereo not drawn) [Example 174, 5-pyrimidinecarboxamide, 4-[1-(4-chlorophenyl)cyclopentyl]-N-[(3,4-dichlorophenyl)methyl]-2-(3-methyl-1-piperidinyl)-], it took 10 nM to reach a half-maximal effect (EC50). This EC50 lies about 82-fold lower than the previous one. The figure for `CC1CCN(c2ncc(C(=O)NCc3ccc(Cl)c(Cl)c3)c(C3(c4ccc(Cl)cc4)CCCC3)n2)CC1` [Example 175, 5-pyrimidinecarboxamide, 4-[1-(4-chlorophenyl)cyclopentyl]-N-[(3,4-dichlorophenyl)methyl]-2-(4-methyl-1-piperidinyl)-] is 10 nM. With `O=C(NCc1ccc(Cl)cc1Cl)c1cnc(NC2CC2)nc1C1(c2ccc(Cl)cc2)CCCC1` [Example 176, 5-pyrimidinecarboxamide, 4-[1-(4-chlorophenyl)cyclopentyl]-2-(cyclopropylamino)-N-[(2,4-dichlorophenyl)methyl]-], the EC50 was determined as 196 nM. Against the preceding molecule, the EC50 is about 20-fold higher.

With `CC1CCC(Nc2ncc(C(=O)NCc3ccc(Cl)cc3Cl)c(C3(c4ccc(Cl)cc4)CCCC3)n2)CC1` (stereo not drawn) [Example 177, 5-pyrimidinecarboxamide, 4-[1-(4-chlorophenyl)cyclopentyl]-N-[(2,4-dichlorophenyl)methyl]-2-[(4-methylcyclohexyl)amino]-], a half-maximal effect (EC50) was put at 55 nM. The value for `O=C(NCc1ccc(Cl)cc1Cl)c1cnc(N2CCCC2)nc1C1(c2ccc(Cl)cc2)CCCC1` [Example 178, 5-pyrimidinecarboxamide, 4-[1-(4-chlorophenyl)cyclopentyl]-N-[(2,4-dichlorophenyl)methyl]-2-(1-pyrrolidinyl)-] was 74 nM. The value for `CN1CCN(c2ncc(C(=O)NCc3ccc(Cl)cc3Cl)c(C3(c4ccc(Cl)cc4)CCCC3)n2)CC1` [Example 179, 5-pyrimidinecarboxamide, 4-[1-(4-chlorophenyl)cyclopentyl]-N-[(2,4-dichlorophenyl)methyl]-2-(4-methyl-1-piperazinyl)-] was 535 nM; that for `CC1CCCN(c2ncc(C(=O)NCc3ccc(Cl)cc3Cl)c(C3(c4ccc(Cl)cc4)CCCC3)n2)C1` (stereo not drawn) [Example 180, 5-pyrimidinecarboxamide, 4-[1-(4-chlorophenyl)cyclopentyl]-N-[(2,4-dichlorophenyl)methyl]-2-(3-methyl-1-piperidinyl)-] was 10 nM. The figure for `CN1CCC(N(C)c2ncc(C(=O)NCc3ccc(Cl)cc3Cl)c(C3(c4ccc(Cl)cc4)CCCC3)n2)CC1` [Example 182, 5-pyrimidinecarboxamide, 4-[1-(4-chlorophenyl)cyclopentyl]-N-[(2,4-dichlorophenyl)methyl]-2-[methyl(1-methyl-4-piperidinyl)amino]-] is 67 nM; for `CCC(C)Nc1ncc(C(=O)NCc2ccc(Cl)cc2Cl)c(C2(c3ccc(Cl)cc3)CCCC2)n1` (stereo not drawn) [Example 183, 5-pyrimidinecarboxamide, 4-[1-(4-chlorophenyl)cyclopentyl]-N-[(2,4-dichlorophenyl)methyl]-2-[(1-methylpropyl)amino]-] it is 10 nM; for `CN(C)CCNc1ncc(C(=O)NCc2ccc(Cl)cc2Cl)c(C2(c3ccc(Cl)cc3)CCCC2)n1` [Example 184, 5-pyrimidinecarboxamide, 4-[1-(4-chlorophenyl)cyclopentyl]-N-[(2,4-dichlorophenyl)methyl]-2-[[2-(dimethylamino)ethyl]amino]-] it is 709 nM.
